In BindingDB's records for doi:10.1016/j.ejmech.2016.05.049 (University of Naples Federico Ii, 2016) one finds Ki data, which are given here for two compounds.

Residues, ends and D or L forms follow the SMILES beside them. *: point of attachment. Cbz = O=C(OCc1ccccc1)*

A short description of the test: Competitive inhibition of post-glutamyl peptide hydrolyzing activity of human 20S proteasome using Cbz-Leu-Leu-Glu-AMC as substrate measured for 10 mins by fluorescence assay.

In turn, `CC(C)CC(NC(=O)C(CO)NC(=O)OCc1ccccc1)C(=O)NC(Cc1ccc(O)cc1)C(N)=O` (stereo not drawn) (Cbz-Ser-Leu-Tyr-NH2; configuration not given here) returned a Ki of 8.59 µM. For `COC(=O)[C@H](Cc1ccc(O)cc1)NC(=O)[C@H](CC(C)C)NC(=O)[C@H](CO)NC(=O)OCc1ccccc1` (Cbz-Ser-Leu-Tyr-OMe) the value was 31.3 µM.

Usually Ki stands for the equilibrium dissociation constant of an inhibitor or competing ligand from its target.
